Consider one compound from PMC11896996, “Emodin mitigates rheumatoid arthritis through direct binding to TNF-α” (Frontiers in Pharmacology, 2025).

This assay concerns the target T1, TNF-α (Homo sapiens, UniProt P01375).
T1 construct: Human TNF-α recombinant protein (Peprotech)
In words: SPR (Biacore T200, hTNF-α immobilized on CM5); BLI gave KD […]; TNF-α-TNFR1 ELISA IC50 […]. It counts as binding.

T1 sequence (P01375 77-233): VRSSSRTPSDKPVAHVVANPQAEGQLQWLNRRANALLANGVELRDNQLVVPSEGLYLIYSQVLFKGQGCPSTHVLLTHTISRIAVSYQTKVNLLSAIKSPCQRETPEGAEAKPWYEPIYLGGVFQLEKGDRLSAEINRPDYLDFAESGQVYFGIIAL

What is called Kd is the concentration at which binding is half-saturated. With `Cc1cc(O)c2c(c1)C(=O)c1cc(O)cc(O)c1C2=O` [emodin, 1,3,8-trihydroxy-6-methylanthraquinone], the dissociation constant Kd is roughly 26.5 µM.
